From ChEMBL document CHEMBL3871303, “In vivo and in silico anti-inflammatory mechanism of action of the semisynthetic (-)-cubebin derivatives (-)-hinokinin and (-)-O-benzylcubebin” (2017)

What was measured:
Format in all cases: functional
[1] = test system: Rattus norvegicus; experiment: Antiinflammatory activity in Wistar rat assessed as inhibition of PGE2-induced paw edema at 40 mg/kg, po administered 30 mins prior to PGE2 treatment measured after 3 hrs
[2] = test system: Rattus norvegicus; experiment: Antiinflammatory activity in Wistar rat assessed as inhibition of dextran-induced paw edema at 40 mg/kg, po administered 30 mins prior to dextran treatment measured after 3 hrs
[3] = test system: Rattus norvegicus; experiment: Antiinflammatory activity in Wistar rat assessed as inhibition of dextran-induced paw edema administered orally 30 mins prior to dextran treatment measured after 3 hrs
[4] = test system: Rattus norvegicus; experiment: Antiinflammatory activity in Wistar rat assessed as inhibition of PGE2-induced paw edema at 10 mg/kg, po administered 30 mins prior to PGE2 treatment measured after 3 hrs

SMILES | inhibition in vivo at 40 mg/kg [1] [%] | inhibition in vivo at 40 mg/kg [2] [%] | inhibition (INH) [3] [%] | inhibition in vivo at 10 mg/kg [4] [%]
O=C1OC[C@@H](Cc2ccc3c(c2)OCO3)[C@@H]1Cc1ccc2c(c1)OCO2 | 59.2 | 18.3 | – | –
c1ccc(COC2OC[C@@H](Cc3ccc4c(c3)OCO4)[C@@H]2Cc2ccc3c(c2)OCO3)cc1 (stereo partly specified) | 66 | 3.5 | – | –
CN1CCC(=C2c3ccccc3C=Cc3ccccc32)CC1 [CYPROHEPTADINE] | – | – | 56 | –
COc1ccc2c(c1)c(CC(=O)O)c(C)n2C(=O)c1ccc(Cl)cc1 [INDOMETHACIN] | – | – | – | 54
